Values of other authors in patent US11191745B2, “Silica nanoparticle with an insoluble drug” (CITY OF HOPE, priority 2017, dated 2021).

System: plasma proteins
Settings: systemically administered

SMILES: CC(=O)O[C@H]1C(=O)[C@@]2(C)[C@H]([C@H](OC(=O)c3ccccc3)[C@]3(O)C[C@H](OC(=O)[C@H](O)[C@@H](NC(=O)c4ccccc4)c4ccccc4)C(C)=C1C3(C)C)[C@]1(OC(C)=O)CO[C@@H]1C[C@@H]2O [PTX, Paclitaxel]
- drug bound to plasma proteins: more than 90%
